Patent publication US6410588B1, “Use of cannabinoids as anti-inflammatory agents” (priority 1998, dated 2002)
“Also recorded” adds a separate entry of the source.

Experiments:
[1] = system: 51Cr-labeled P815 lymphoma cell line; test: cell mediated cytotoxicity after mixed leukocyte culture; format: cell-based, mouse
Description: Cells harvested from MLC were tested for their cytotoxic activity against ^51Cr-labeled P815 (H-2^d)lymphoma cell line. Cytotoxic activity is given in LU/10^6cells (see Materials and Methods).
MHC-restricted CTL were activated in MLC by co-culturing 2.5×10^6 responding spleen cells for 5 days with an equal number of irradiated (25 Gy) allogeneic splenocytes in 2 ml/well of complete DMEM in 24-well plates (Costar).
Cytotoxic assays were performed as described previously (Leshem et al, 1999). Briefly, effector cells were serially diluted (threefold) in triplicate wells of conical-bottom microplates (Nunc) and mixed with washed ^51Cr-labeled target cells in a final 200 μl volume to make 4-6 effector target cell ratios. Microplates were centrifuged (70×g, 2 min.) and incubated for 4 h. They were then centrifuged at 200×g for 5 min. and the supernatants (150 μl) were counted in an automatic […] (LKB-Wallac, Finland). Percent of specific cytotoxic activity was calculated according to the formula: [(experimental cpm−background cpm)/(maximal cpm−background cpm)×100]. Lytic units (LU), were drawn from the cytotoxicity measured at 4-6 E:T cell ratios. One 1 LU is defined as the number of effector cells causing lysis of 30% target cells (Leshem and Brass, 1998).

IFNγ production = test: IFNγ release by PHA-stimulated human PBMC; format: cell-based; details: PHA 5 μg/ml 72 hours, mean ± SEM
Description: (§1) CBD was dissolved in ethanol/DMSO.
(§2) Peripheral blood mononuclear cells (PBMC) were isolated from the whole blood of healthy donors by Ficoll Hypaque gradient. […] After this 6 hour pretreatment period, the cells were stimulated with either LPS from Salmonella typhimirium, 10 ng/ml, for 24 hours (for TNF and IL-1β) or with PHA, 5 μg/ml, for 72 hours (for IFNγ) Viability of the PBMC was assessed with the MTT test.
(§3) Human PBMC were cultured and stimulated with or without CBD, as described in Materials and Methods. The stimulus for TNF and IL-1 production was LPS, the stimulus for IFNγ production was PHA. The results are the mean of triplicate wells±SEM. ND=not done.

[2] = system: mRNA of IL-1, IL-6 and TNFα; details: BALB/C mice injected with cannabidiol; cited from earlier work
anticonvulsant effects = details: in vivo; cited from earlier work
nitric oxide (NO) = details: macrophages activated by LPS and IFNγ; cited from earlier work
[3] = system: ROI production by granulocytes; test: ROI production by granulocytes, luminol-enhanced chemiluminescence response to zymosan; format: cell-based, mouse (C57BL/6)
Description: Thioglycollate-elicited granulocytes were harvested from C57BL/6 mice by sterile lavage with PBS 18 hrs. after intraperitoneal injection with 1.5 ml thioglycollate medium (1.5 ml in 3% solution). The cells were washed and resuspended at 5×10^5 cells/ml in Hanks' buffered salt solution without phenol red, and distributed at 0.5 ml/tube into luminometer plastic tubes. […] The tube was inserted into luminometer (Biolumate LB 95 oot Berhold Wildbad Germany) which had been prewarmed to 37° C. The granulocyte luminol-enhanced chemiluminescence response to zymosan was considered as the positive control.

[4] = system: animal models predictive of antipsychotic activity; details: in vivo; cited from earlier work
TNFα = details: cited from earlier work
CB2 = CB2 (Homo sapiens, UniProt P34972); details: cited from earlier work
[5] = system: nitric oxide (NO) generation; test: nitric oxide (NO) generation by Thioglycollate induced macrophages, Griess reagent; format: cell-based, mouse
TNFα release = TNFα release by LPS-stimulated human PBMC; format: cell-based; details: for TNF α: LPS 10 ng/ml 24 hours
Description: as §1, §2, §3

[6] = system: collagen induced arthritis (CIA); test: acute CIA model, oral feeding of CBD; format: in vivo, mouse; details: 10 days
Description: The drug was administered by oral gavage. Control mice were fed vehicle (olive oil) along, as described in Materials and Methods. Results are expressed as a mean+/−SEM.
The doses used were 10 mg/kag, 25 mg/kg and 50 mg/kg (n=6 per group), corresponding to 2, 5, and 10 mg/kg i.p. respectively. Control mice were fed olive oil (n=6).

Legionella = details: mouse, in vivo; cited from earlier work
PBQ-induced writhing = details: orally at doses up to 10 mg/kg; cited from earlier work
[7] = LPS 1 μg/ml + IFNγ 10 U/ml, CBD 2 μg/ml
[8] = LPS 1 μg/ml + IFNγ 10 U/ml, CBD 4 (μg/ml)
[9] = LPS 1 μg/ml + IFNγ 10 U/ml, CBD 6 (μg/ml)
[10] = LPS 1 μg/ml + IFNγ 10 U/ml, CBD 8 (μg/ml)

Sequence of CB2 (P34972 whole entry, species assumed): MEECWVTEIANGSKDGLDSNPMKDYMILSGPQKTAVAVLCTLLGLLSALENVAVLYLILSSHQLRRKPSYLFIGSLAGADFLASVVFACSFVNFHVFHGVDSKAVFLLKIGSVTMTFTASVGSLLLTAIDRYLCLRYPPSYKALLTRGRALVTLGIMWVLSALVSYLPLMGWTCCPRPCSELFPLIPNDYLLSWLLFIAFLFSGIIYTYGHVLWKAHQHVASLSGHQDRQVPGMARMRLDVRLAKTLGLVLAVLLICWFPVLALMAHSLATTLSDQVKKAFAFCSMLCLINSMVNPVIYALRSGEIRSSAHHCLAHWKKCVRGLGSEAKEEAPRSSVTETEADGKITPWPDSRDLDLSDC

## C=C(C)[C@@H]1CCC(C)=C[C@H]1c1c(O)cc(CCCCC)cc1O [CBD, Cannabidiol]
[1]; above approximately 1 μg/ml CBD
  cell mediated cytotoxicity: decrease in cytotoxicity
[1]; low concentrations of CBD
  cell mediated cytotoxicity: increase cytotoxicity
IFNγ production; CBD 0.1 μg/ml
  IFNγ: 2062 ± 316 pg/mL
IFNγ production; CBD 1 μg/ml
  IFNγ: 1082 ± 75 pg/mL
IFNγ production; CBD 2.5 μg/ml
  IFNγ: 1171 ± 138 pg/mL
IFNγ production; CBD 5 μg/ml
  IFNγ: 791 ± 43 pg/mL
IFNγ production; CBD 10 μg/ml
  IFNγ: 150 ± 43 pg/mL
[2]
  level of mRNA of IL-1, IL-6 and TNFα: did not show significant change
Anticonvulsant effects
  anticonvulsant effects: anticonvulsant effects
Nitric oxide (NO)
  nitric oxide (NO) production: inhibited
[3]; Zymozan + CBD 5 μg/ml (1 h)
  Chemiluminescence computer peak: 157
[3]; Zymozan + CBD 6 μg/ml (0 h)
  Chemiluminescence computer peak: 1024
[3]; Zymozan + CBD 6 μg/ml (2 h)
  Chemiluminescence computer peak: 235
[4]
  efficacy in animal models predictive of antipsychotic activity: effective
TNFα
  TNFα production: decreased
CB2
  binding to peripheral receptor CB2: does not bind
[5]; [7]
  % INHIBITION of NO, 24 h: 14%
  NO, 24 h: 12 nM
[5]; LPS 1 μg/ml + IFNγ 10 U/ml, CBD 2 (μg/ml)
  NO, 48 h: 25.4 nM
[5]; [8]
  % INHIBITION of NO, 24 h: 51%
  NO, 24 h: 6.9 nM
  NO, 48 h: 21.3 nM
[5]; [9]
  % INHIBITION of NO, 24 h: 61%
  NO, 24 h: 5.5 nM
  NO, 48 h: 18.1 nM
[5]; [10]
  % INHIBITION of NO, 24 h: 99%
  NO, 24 h: 0.2 nM
  % INHIBITION of NO, 48 h: 85%
  NO, 48 h: 3.1 nM
[5]; LPS 1 μg/ml, CBD 2 (μg/ml)
  % INHIBITION of NO, 24 h: 32%
  NO, 24 h: 3.7 nM
  % INHIBITION of NO, 48 h: 9%
  NO, 48 h: 6.7 nM
[5]; LPS 1 μg/ml, CBD 4 (μg/ml)
  % INHIBITION of NO, 24 h: 90%
  NO, 24 h: 0.5 nM
  % INHIBITION of NO, 48 h: 37%
  NO, 48 h: 4.6 nM
[5]; LPS 1 μg/ml, CBD 6 (μg/ml)
  % INHIBITION of NO, 24 h: 99%
  NO, 24 h: 0.1 nM
  % INHIBITION of NO, 48 h: 71%
  NO, 48 h: 2.1 nM
[5]; LPS 1 μg/ml, CBD 8 (μg/ml)
  % INHIBITION of NO, 24 h: 99%
  NO, 24 h: 0.1 nM
  % INHIBITION of NO, 48 h: 95%
  NO, 48 h: 0.4 nM
[5]; higher concentrations of CBD
  effect on nitric oxide production (in words): inhibit nitric oxide production
[5]; low concentrations of CBD
  effect on nitric oxide production (in words): activate nitric oxide production
TNFα release; CBD 0.1 μg/ml, mean of triplicate wells ± SEM
  TNF α: 2959 ± 434 pg/mL
TNFα release; CBD 1 μg/ml, mean ± SEM
  TNF α: 2503 ± 181 pg/mL
TNFα release; CBD 2.5 μg/ml, mean ± SEM
  TNF α: 3071 ± 296 pg/mL
TNFα release; CBD 5 μg/ml, mean ± SEM
  TNF α: 4152 ± 499 pg/mL
TNFα release; CBD 10 μg/ml, mean ± SEM
  TNF α: 10,964 ± 1714 pg/ml
TNFα release; CBD 20 μg/ml, mean ± SEM
  TNF α: 15,071 ± 2594 pg/ml
TNFα release; CBD 30 μg/ml, mean ± SEM
  TNF α: 20,824 ± 1046 pg/ml
TNFα release; higher concentrations of CBD
  effect on LPS-induced TNFα release (in words): increased their release
TNFα release; lower concentrations of CBD (0.1 to 5 μg/ml)
  effect on LPS-induced TNFα release (in words): significantly suppressed
[6]; 25 mg/kg daily oral gavage
  suppression of arthritis (in words): significantly better than the control group; also recorded: optimal dose
[6]; daily oral gavage after onset of arthritis
  suppression of arthritis (in words): adequate suppression of the arthritis
Legionella
  mortality of mice sublethally injected with Legionella: not affected
PBQ-induced writhing
  PBQ-induced writhing: inhibited PBQ-induced writhing
